PubChem BioAssay (NCI)
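A five-concentration, 48-hour dose response in 96-well plates underlies each endpoint, interpolated linearly between surrounding concentrations. At the GI50, growth is halved. The concentration for full growth arrest is given as TGI.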

What was measured:
Assay in all cases: NCI tumour cell line growth inhibition, 48 h
MALME-3M melanoma = test system: MALME-3M melanoma
UACC-62 melanoma = test system: UACC-62 melanoma
LOX IMVI melanoma = test system: LOX IMVI melanoma
OVCAR-8 ovarian = test system: OVCAR-8 ovarian
COLO 205 colon = test system: COLO 205 colon
MDA-MB-231 breast = test system: MDA-MB-231 breast
SW-620 colon = test system: SW-620 colon
UACC-257 melanoma = test system: UACC-257 melanoma
SNB-19 CNS = test system: SNB-19 CNS
OVCAR-3 ovarian = test system: OVCAR-3 ovarian
SK-MEL-28 melanoma = test system: SK-MEL-28 melanoma
SK-MEL-2 melanoma = test system: SK-MEL-2 melanoma
SK-OV-3 ovarian = test system: SK-OV-3 ovarian
NCI-H522 lung = test system: NCI-H522 lung
HCT-15 colon = test system: HCT-15 colon
PC-3 prostate = test system: PC-3 prostate
HOP-92 NSCLC = test system: HOP-92 NSCLC
NCI-H460 lung = test system: NCI-H460 lung
OVCAR-5 ovarian = test system: OVCAR-5 ovarian
RXF 393 renal = test system: RXF 393 renal
UO-31 renal = test system: UO-31 renal
K-562 leukemia = test system: K-562 leukemia
SF-268 CNS = test system: SF-268 CNS
SF-295 CNS = test system: SF-295 CNS
NCI/ADR-RES ovarian = test system: NCI/ADR-RES ovarian
OVCAR-4 ovarian = test system: OVCAR-4 ovarian
MCF7 breast = test system: MCF7 breast
MDA-MB-435 = test system: MDA-MB-435
M14 melanoma = test system: M14 melanoma
HCC-2998 colon = test system: HCC-2998 colon
SNB-75 CNS = test system: SNB-75 CNS
NCI-H23 lung = test system: NCI-H23 lung
786-0 renal = test system: 786-0 renal
ACHN renal = test system: ACHN renal
RPMI-8226 leukemia = test system: RPMI-8226 leukemia
SF-539 CNS = test system: SF-539 CNS
U251 CNS = test system: U251 CNS
HCT-116 colon = test system: HCT-116 colon
A498 renal = test system: A498 renal
T-47D breast = test system: T-47D breast
DU-145 prostate = test system: DU-145 prostate
A549 NSCLC = test system: A549 NSCLC
KM12 colon = test system: KM12 colon
HS 578T breast = test system: HS 578T breast
HOP-62 NSCLC = test system: HOP-62 NSCLC
HT29 colon = test system: HT29 colon
EKVX NSCLC = test system: EKVX NSCLC
MOLT-4 leukemia = test system: MOLT-4 leukemia
SR leukemia = test system: SR leukemia
CCRF-CEM leukemia = test system: CCRF-CEM leukemia
BT-549 breast = test system: BT-549 breast
SK-MEL-5 melanoma = test system: SK-MEL-5 melanoma

CCN(CC)CCCNC(=O)c1c2c(n3ccccc13)C(=O)c1ncccc1C2=O
GI50 (MALME-3M melanoma): 82.3 nM
TGI (MALME-3M melanoma): 425 nM
GI50 (UACC-62 melanoma): 472 nM
TGI (UACC-62 melanoma): 2210 nM
GI50 (LOX IMVI melanoma): 391 nM
TGI (LOX IMVI melanoma): 1800 nM
GI50 (OVCAR-8 ovarian): 486 nM
TGI (OVCAR-8 ovarian): 2070 nM
GI50 (COLO 205 colon): 123 nM
TGI (COLO 205 colon): 399 nM
GI50 (MDA-MB-231 breast): 404 nM
TGI (MDA-MB-231 breast): 9.73 µM
GI50 (SW-620 colon): 367 nM
TGI (SW-620 colon): 1670 nM
GI50 (UACC-257 melanoma): 491 nM
TGI (UACC-257 melanoma): 1710 nM
GI50 (SNB-19 CNS): 1090 nM
TGI (SNB-19 CNS): 2670 nM
GI50 (OVCAR-3 ovarian): 134 nM
TGI (OVCAR-3 ovarian): 938 nM
GI50 (SK-MEL-28 melanoma): 2490 nM
TGI (SK-MEL-28 melanoma): 8.64 µM
GI50 (SK-MEL-2 melanoma): 1700 nM
TGI (SK-MEL-2 melanoma): 3.89 µM
GI50 (SK-OV-3 ovarian): 1590 nM
TGI (SK-OV-3 ovarian): 5.65 µM
GI50 (NCI-H522 lung): 515 nM
TGI (NCI-H522 lung): 2320 nM
GI50 (HCT-15 colon): 935 nM
TGI (HCT-15 colon): 2540 nM
GI50 (PC-3 prostate): 616 nM
TGI (PC-3 prostate): 6.65 µM
GI50 (HOP-92 NSCLC): 2220 nM
TGI (HOP-92 NSCLC): 4.87 µM
GI50 (NCI-H460 lung): 225 nM
TGI (NCI-H460 lung): 1750 nM
GI50 (OVCAR-5 ovarian): 1180 nM
TGI (OVCAR-5 ovarian): 4.9 µM
GI50 (RXF 393 renal): 1160 nM
TGI (RXF 393 renal): 3.13 µM
GI50 (UO-31 renal): 1590 nM
TGI (UO-31 renal): 5.07 µM
GI50 (K-562 leukemia): 916 nM
TGI (K-562 leukemia): > 100 µM
GI50 (SF-268 CNS): 1110 nM
TGI (SF-268 CNS): 7.09 µM
GI50 (SF-295 CNS): 1070 nM
TGI (SF-295 CNS): 6.29 µM
GI50 (NCI/ADR-RES ovarian): 3.02 µM
TGI (NCI/ADR-RES ovarian): 23.4 µM
GI50 (OVCAR-4 ovarian): 164 nM
TGI (OVCAR-4 ovarian): 903 nM
GI50 (MCF7 breast): 298 nM
TGI (MCF7 breast): 1760 nM
GI50 (MDA-MB-435): 224 nM
TGI (MDA-MB-435): 506 nM
GI50 (M14 melanoma): 764 nM
TGI (M14 melanoma): 2250 nM
GI50 (HCC-2998 colon): 388 nM
TGI (HCC-2998 colon): 1650 nM
GI50 (SNB-75 CNS): 1500 nM
TGI (SNB-75 CNS): 2930 nM
GI50 (NCI-H23 lung): 252 nM
TGI (NCI-H23 lung): 1990 nM
GI50 (786-0 renal): 904 nM
TGI (786-0 renal): 7.9 µM
GI50 (ACHN renal): 395 nM
TGI (ACHN renal): 3.16 µM
GI50 (RPMI-8226 leukemia): 3.21 µM
TGI (RPMI-8226 leukemia): > 100 µM
GI50 (SF-539 CNS): 1070 nM
TGI (SF-539 CNS): 2450 nM
GI50 (U251 CNS): 1370 nM
TGI (U251 CNS): 2890 nM
GI50 (HCT-116 colon): 250 nM
TGI (HCT-116 colon): 1090 nM
GI50 (A498 renal): 1660 nM
TGI (A498 renal): 3.27 µM
GI50 (T-47D breast): 1340 nM
TGI (T-47D breast): 3.61 µM
GI50 (DU-145 prostate): 1230 nM
TGI (DU-145 prostate): 2560 nM
GI50 (A549 NSCLC): 1170 nM
TGI (A549 NSCLC): 2840 nM
GI50 (KM12 colon): 440 nM
TGI (KM12 colon): 6.33 µM
GI50 (HS 578T breast): 2460 nM
TGI (HS 578T breast): 7.3 µM
GI50 (HOP-62 NSCLC): 586 nM
TGI (HOP-62 NSCLC): 2780 nM
GI50 (HT29 colon): 248 nM
TGI (HT29 colon): 1540 nM
GI50 (EKVX NSCLC): 1310 nM
TGI (EKVX NSCLC): 3.11 µM
GI50 (MOLT-4 leukemia): 604 nM
TGI (MOLT-4 leukemia): > 100 µM
GI50 (SR leukemia): 485 nM
TGI (SR leukemia): > 100 µM
GI50 (CCRF-CEM leukemia): 2210 nM
TGI (CCRF-CEM leukemia): > 100 µM
GI50 (BT-549 breast): 1940 nM
TGI (BT-549 breast): 4.06 µM
GI50 (SK-MEL-5 melanoma): 275 nM
TGI (SK-MEL-5 melanoma): 1240 nM
